According to PubChem BioAssay (NCI):
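96-well plates; 48 h exposure; 5 concentrations. Endpoints by linear interpolation between flanking doses. Not reached: highest tested concentration assigned. GI50 marks 50% less growth. TGI: total growth inhibition.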

How the values were obtained:
Assay in all cases: NCI-60 cell line screen, 48 h
HCC-2998 colon = tested on: HCC-2998 colon
COLO 205 colon = tested on: COLO 205 colon
T-47D breast = tested on: T-47D breast
OVCAR-5 ovarian = tested on: OVCAR-5 ovarian
UACC-62 melanoma = tested on: UACC-62 melanoma
HCT-116 colon = tested on: HCT-116 colon
CCRF-CEM leukemia = tested on: CCRF-CEM leukemia
SW-620 colon = tested on: SW-620 colon
OVCAR-8 ovarian = tested on: OVCAR-8 ovarian
SK-MEL-5 melanoma = tested on: SK-MEL-5 melanoma
KM12 colon = tested on: KM12 colon
A498 renal = tested on: A498 renal
ACHN renal = tested on: ACHN renal
SNB-19 CNS = tested on: SNB-19 CNS
DU-145 prostate = tested on: DU-145 prostate
MOLT-4 leukemia = tested on: MOLT-4 leukemia
SF-539 CNS = tested on: SF-539 CNS
U251 CNS = tested on: U251 CNS
RXF 393 renal = tested on: RXF 393 renal
UACC-257 melanoma = tested on: UACC-257 melanoma
NCI-H460 lung = tested on: NCI-H460 lung
UO-31 renal = tested on: UO-31 renal
NCI/ADR-RES ovarian = tested on: NCI/ADR-RES ovarian
M14 melanoma = tested on: M14 melanoma
PC-3 prostate = tested on: PC-3 prostate
HOP-92 NSCLC = tested on: HOP-92 NSCLC
HCT-15 colon = tested on: HCT-15 colon
NCI-H23 lung = tested on: NCI-H23 lung
IGROV1 ovarian = tested on: IGROV1 ovarian
TK-10 renal = tested on: TK-10 renal
SK-OV-3 ovarian = tested on: SK-OV-3 ovarian
BT-549 breast = tested on: BT-549 breast
HT29 colon = tested on: HT29 colon
SK-MEL-2 melanoma = tested on: SK-MEL-2 melanoma
NCI-H522 lung = tested on: NCI-H522 lung
K-562 leukemia = tested on: K-562 leukemia
HL-60(TB) leukemia = tested on: HL-60(TB) leukemia
A549 NSCLC = tested on: A549 NSCLC
MDA-MB-231 breast = tested on: MDA-MB-231 breast
786-0 renal = tested on: 786-0 renal
SF-268 CNS = tested on: SF-268 CNS
CAKI-1 renal = tested on: CAKI-1 renal
OVCAR-4 ovarian = tested on: OVCAR-4 ovarian
NCI-H226 lung = tested on: NCI-H226 lung
HOP-62 NSCLC = tested on: HOP-62 NSCLC
LOX IMVI melanoma = tested on: LOX IMVI melanoma
SF-295 CNS = tested on: SF-295 CNS
EKVX NSCLC = tested on: EKVX NSCLC
SNB-75 CNS = tested on: SNB-75 CNS
RPMI-8226 leukemia = tested on: RPMI-8226 leukemia
SN12C renal = tested on: SN12C renal
SK-MEL-28 melanoma = tested on: SK-MEL-28 melanoma
MALME-3M melanoma = tested on: MALME-3M melanoma
OVCAR-3 ovarian = tested on: OVCAR-3 ovarian
MCF7 breast = tested on: MCF7 breast
HS 578T breast = tested on: HS 578T breast
SR leukemia = tested on: SR leukemia

Cc1nc2sc(C(=O)Nc3ccccc3)c(N)c2cc1C(=O)c1ccccc1 was tested. Which GI50 (HCC-2998 colon) did it give?
The GI50 was 2.19 µM.

And the TGI (HCC-2998 colon)?
The TGI was 25.8 µM.

And the GI50 (COLO 205 colon)?
The GI50 was 1.86 µM.

And the TGI (COLO 205 colon)?
The TGI was 7.55 µM.

What about the GI50 (T-47D breast) of the same molecule?
Its GI50 is 2.94 µM.

What about the TGI (T-47D breast) of the same molecule?
Its TGI is greater than 50 µM.

What about the GI50 (OVCAR-5 ovarian) of the same molecule?
Its GI50 is 2.9 µM.

And the TGI (OVCAR-5 ovarian)?
Its TGI is greater than 50 µM.

What about the GI50 (UACC-62 melanoma) of the same molecule?
The GI50 was 2.12 µM.

What about the TGI (UACC-62 melanoma) of the same molecule?
Its TGI is greater than 50 µM.

What about the GI50 (HCT-116 colon) of the same molecule?
The GI50 was 1.59 µM.

What about the TGI (HCT-116 colon) of the same molecule?
The TGI was greater than 50 µM.

And the GI50 (CCRF-CEM leukemia)?
The GI50 was 1.69 µM.

And the TGI (CCRF-CEM leukemia)?
Its TGI is greater than 50 µM.

And the GI50 (SW-620 colon)?
The GI50 was 2.29 µM.

And the TGI (SW-620 colon)?
Its TGI is greater than 50 µM.

What about the GI50 (OVCAR-8 ovarian) of the same molecule?
Its GI50 is 3.86 µM.

And the TGI (OVCAR-8 ovarian)?
Its TGI is greater than 50 µM.

And the GI50 (SK-MEL-5 melanoma)?
The GI50 was 1.97 µM.

And the TGI (SK-MEL-5 melanoma)?
Its TGI is 8.13 µM.

What about the GI50 (KM12 colon) of the same molecule?
The GI50 was 2.04 µM.

And the TGI (KM12 colon)?
The TGI was greater than 50 µM.

What about the GI50 (A498 renal) of the same molecule?
The GI50 was 0.216 µM.

What about the TGI (A498 renal) of the same molecule?
Its TGI is 3.72 µM.

And the GI50 (ACHN renal)?
The GI50 was 4.52 µM.

And the TGI (ACHN renal)?
The TGI was greater than 50 µM.

And the GI50 (SNB-19 CNS)?
The GI50 was 2 µM.

What about the TGI (SNB-19 CNS) of the same molecule?
Its TGI is greater than 50 µM.

What about the GI50 (DU-145 prostate) of the same molecule?
The GI50 was 1.73 µM.

And the TGI (DU-145 prostate)?
Its TGI is greater than 50 µM.

What about the GI50 (MOLT-4 leukemia) of the same molecule?
Its GI50 is 2 µM.

And the TGI (MOLT-4 leukemia)?
Its TGI is greater than 50 µM.

What about the GI50 (SF-539 CNS) of the same molecule?
The GI50 was 1.66 µM.

And the TGI (SF-539 CNS)?
The TGI was greater than 50 µM.

What about the GI50 (U251 CNS) of the same molecule?
The GI50 was 2.09 µM.

And the TGI (U251 CNS)?
Its TGI is greater than 50 µM.

And the GI50 (RXF 393 renal)?
The GI50 was 1.83 µM.

What about the TGI (RXF 393 renal) of the same molecule?
Its TGI is 34.3 µM.

And the GI50 (UACC-257 melanoma)?
Its GI50 is 31.5 µM.

And the TGI (UACC-257 melanoma)?
Its TGI is greater than 50 µM.

And the GI50 (NCI-H460 lung)?
Its GI50 is 1.66 µM.

What about the TGI (NCI-H460 lung) of the same molecule?
The TGI was greater than 50 µM.

And the GI50 (UO-31 renal)?
Its GI50 is 3.58 µM.

And the TGI (UO-31 renal)?
Its TGI is greater than 50 µM.

And the GI50 (NCI/ADR-RES ovarian)?
Its GI50 is 1.9 µM.

What about the TGI (NCI/ADR-RES ovarian) of the same molecule?
The TGI was greater than 50 µM.

And the GI50 (M14 melanoma)?
Its GI50 is 1.56 µM.

What about the TGI (M14 melanoma) of the same molecule?
The TGI was greater than 50 µM.

What about the GI50 (PC-3 prostate) of the same molecule?
The GI50 was 1.66 µM.

What about the TGI (PC-3 prostate) of the same molecule?
The TGI was greater than 50 µM.

And the GI50 (HOP-92 NSCLC)?
Its GI50 is 9.47 µM.

And the TGI (HOP-92 NSCLC)?
Its TGI is greater than 50 µM.

And the GI50 (HCT-15 colon)?
Its GI50 is 2.19 µM.

And the TGI (HCT-15 colon)?
Its TGI is greater than 50 µM.

And the GI50 (NCI-H23 lung)?
The GI50 was 3.99 µM.

And the TGI (NCI-H23 lung)?
Its TGI is greater than 50 µM.

And the GI50 (IGROV1 ovarian)?
The GI50 was 4.11 µM.

And the TGI (IGROV1 ovarian)?
Its TGI is greater than 50 µM.

And the GI50 (TK-10 renal)?
The GI50 was 3.09 µM.

And the TGI (TK-10 renal)?
The TGI was greater than 50 µM.

What about the GI50 (SK-OV-3 ovarian) of the same molecule?
The GI50 was 2.35 µM.

And the TGI (SK-OV-3 ovarian)?
The TGI was greater than 50 µM.

And the GI50 (BT-549 breast)?
Its GI50 is 1.89 µM.

What about the TGI (BT-549 breast) of the same molecule?
The TGI was greater than 50 µM.

What about the GI50 (HT29 colon) of the same molecule?
Its GI50 is 1.75 µM.

What about the TGI (HT29 colon) of the same molecule?
Its TGI is 9.54 µM.

And the GI50 (SK-MEL-2 melanoma)?
Its GI50 is 2.83 µM.

What about the TGI (SK-MEL-2 melanoma) of the same molecule?
Its TGI is greater than 50 µM.

What about the GI50 (NCI-H522 lung) of the same molecule?
The GI50 was 1.54 µM.

And the TGI (NCI-H522 lung)?
Its TGI is 12.7 µM.

What about the GI50 (K-562 leukemia) of the same molecule?
Its GI50 is 1.69 µM.

What about the TGI (K-562 leukemia) of the same molecule?
The TGI was greater than 50 µM.

What about the GI50 (HL-60(TB) leukemia) of the same molecule?
Its GI50 is 0.0138 µM.

What about the TGI (HL-60(TB) leukemia) of the same molecule?
The TGI was 38.1 µM.

And the GI50 (A549 NSCLC)?
The GI50 was 0.853 µM.

What about the TGI (A549 NSCLC) of the same molecule?
The TGI was greater than 50 µM.

What about the GI50 (MDA-MB-231 breast) of the same molecule?
Its GI50 is 3.04 µM.

What about the TGI (MDA-MB-231 breast) of the same molecule?
Its TGI is greater than 50 µM.

And the GI50 (786-0 renal)?
Its GI50 is 1.81 µM.

And the TGI (786-0 renal)?
Its TGI is greater than 50 µM.

What about the GI50 (SF-268 CNS) of the same molecule?
Its GI50 is 3.5 µM.

And the TGI (SF-268 CNS)?
Its TGI is greater than 50 µM.

And the GI50 (CAKI-1 renal)?
The GI50 was 3.29 µM.

And the TGI (CAKI-1 renal)?
The TGI was greater than 50 µM.

And the GI50 (OVCAR-4 ovarian)?
The GI50 was 34.7 µM.

And the TGI (OVCAR-4 ovarian)?
Its TGI is greater than 50 µM.

What about the GI50 (NCI-H226 lung) of the same molecule?
The GI50 was 16.9 µM.

And the TGI (NCI-H226 lung)?
Its TGI is greater than 50 µM.

What about the GI50 (HOP-62 NSCLC) of the same molecule?
Its GI50 is 3.33 µM.

And the TGI (HOP-62 NSCLC)?
The TGI was greater than 50 µM.

What about the GI50 (LOX IMVI melanoma) of the same molecule?
The GI50 was 3 µM.

And the TGI (LOX IMVI melanoma)?
The TGI was greater than 50 µM.

And the GI50 (SF-295 CNS)?
The GI50 was 1.83 µM.

And the TGI (SF-295 CNS)?
The TGI was greater than 50 µM.

What about the GI50 (EKVX NSCLC) of the same molecule?
The GI50 was 2.74 µM.

What about the TGI (EKVX NSCLC) of the same molecule?
Its TGI is greater than 50 µM.

What about the GI50 (SNB-75 CNS) of the same molecule?
Its GI50 is 1.87 µM.

What about the TGI (SNB-75 CNS) of the same molecule?
The TGI was greater than 50 µM.

What about the GI50 (RPMI-8226 leukemia) of the same molecule?
Its GI50 is 1.86 µM.

And the TGI (RPMI-8226 leukemia)?
Its TGI is greater than 50 µM.

What about the GI50 (SN12C renal) of the same molecule?
The GI50 was 3.01 µM.

And the TGI (SN12C renal)?
The TGI was greater than 50 µM.

What about the GI50 (SK-MEL-28 melanoma) of the same molecule?
The GI50 was 8.82 µM.

What about the TGI (SK-MEL-28 melanoma) of the same molecule?
The TGI was greater than 50 µM.

What about the GI50 (MALME-3M melanoma) of the same molecule?
The GI50 was 5.5 µM.

And the TGI (MALME-3M melanoma)?
Its TGI is greater than 50 µM.

What about the GI50 (OVCAR-3 ovarian) of the same molecule?
Its GI50 is 1.91 µM.

What about the TGI (OVCAR-3 ovarian) of the same molecule?
The TGI was 6.19 µM.

What about the GI50 (MCF7 breast) of the same molecule?
Its GI50 is 1.73 µM.

And the TGI (MCF7 breast)?
Its TGI is greater than 50 µM.

And the GI50 (HS 578T breast)?
The GI50 was 2.47 µM.

What about the TGI (HS 578T breast) of the same molecule?
The TGI was greater than 50 µM.

And the GI50 (SR leukemia)?
The GI50 was 0.923 µM.

What about the TGI (SR leukemia) of the same molecule?
Its TGI is 18.1 µM.
